Structures are written as SMILES.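 A five-concentration, 48-hour dose response in 96-well plates underlies each endpoint, interpolated linearly between surrounding concentrations. The concentration for 50% growth inhibition is given as GI50.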 Calls of active or inactive are those of the source. Cut-off read from the data, not from the text of the source: active = GI50 up to about 1.1 µM and inactive = higher. Some results are limits rather than exact numbers.

Some test systems named below: U-251; EKVX; SK-MEL-28; K562; HOP-92; HCT-15; NCI-H460; RXF 393; MOLT-4; 786-0; HL-60; SK-MEL-2; UACC-257; LOX IMVI; HOP-62; UO-31; CCRF-CEM.
Common to all, as to experiment: NCI tumour cell line growth inhibition, 48 h

Turning to `CN(C)C(=O)OC(Cn1cncn1)c1ccc(Cl)cc1Cl` (stereo not given), the GI50 with U-251 is > 100 µM (inactive); in the assay with EKVX, > 100 µM (inactive); with SK-MEL-28, > 100 µM (inactive); in the assay with K562, > 100 µM (inactive); in the assay on HOP-92, > 100 µM (inactive); in the assay with HCT-15, greater than 100 µM. Moreover, the GI50 with NCI-H460, with RXF 393, in the assay with MOLT-4, with 786-0, in the assay with HL-60 and in the assay on SK-MEL-2 was > 100 µM (inactive) each time. Besides, the GI50 in the assay with UACC-257, in the assay on LOX IMVI, in the assay on HOP-62 and in the assay with UO-31 was > 100 µM (inactive) in each case.
Turning to `NC(=O)N1N=C2c3ccccc3CC[C@@H]2C1c1ccccc1` (stereo not given in full), the GI50 was > 100 µM (inactive) in the assay on U-251; > 100 µM (inactive) in the assay with EKVX; > 100 µM (inactive) in the assay with SK-MEL-28; 61.4 µM (inactive) in the assay with K562; greater than 100 µM in the assay with HCT-15; > 100 µM (inactive) in the assay with NCI-H460. In addition, the GI50 in the assay with RXF 393 was > 100 µM (inactive); in the assay on MOLT-4 it was 69 µM (inactive); in the assay with 786-0, > 100 µM (inactive); in the assay on CCRF-CEM, > 100 µM (inactive); in the assay on HL-60, 42.9 µM (inactive); in the assay with SK-MEL-2, > 100 µM (inactive). Also, the GI50 in the assay on UACC-257, in the assay with LOX IMVI, in the assay on HOP-62 and in the assay on UO-31 was > 100 µM (inactive) in each case.
As to `Cc1nn(-c2nc3ccccc3s2)c2c1C(=O)c1ccccc1-2`, the GI50 is 60.7 µM (inactive) in the assay with U-251; > 100 µM (inactive) with EKVX; > 100 µM (inactive) with SK-MEL-28; > 100 µM (inactive) in the assay on K562; 89.3 µM (inactive) in the assay with HOP-92; greater than 100 µM in the assay with HCT-15. Moreover, the GI50 with NCI-H460 was > 100 µM (inactive); with RXF 393 it was 62.5 µM (inactive); in the assay with 786-0, 80.4 µM (inactive); in the assay on HL-60 it was > 100 µM (inactive); in the assay with SK-MEL-2, > 100 µM (inactive); with UACC-257, > 100 µM (inactive). The GI50 in the assay on LOX IMVI, with HOP-62 and with UO-31 was > 100 µM (inactive) throughout.
Regarding `CCCCNC(=NC#N)NCCCC`, the GI50 in the assay with U-251 is 99.5 µM (inactive); in the assay with EKVX, > 100 µM (inactive); in the assay on SK-MEL-28, > 100 µM (inactive); with K562, > 100 µM (inactive); with HOP-92 it was > 100 µM (inactive); in the assay with HCT-15, 62.4 µM. Moreover, the GI50 in the assay with NCI-H460 is > 100 µM (inactive); in the assay on RXF 393, 34.5 µM (inactive); in the assay with MOLT-4, > 100 µM (inactive); in the assay with 786-0, 49.5 µM (inactive); in the assay on SK-MEL-2, > 100 µM (inactive); in the assay on UACC-257 it was > 100 µM (inactive). Besides, the GI50 in the assay with HOP-62 and with UO-31 was > 100 µM (inactive) each time.
For the molecule `COC1(C)CC2N(C(=O)c3ccccc3)N=C(c3ccccc3)CC2(C)O1` (stereo not given), the GI50 is 88.9 µM (inactive) in the assay with K562; > 100 µM (inactive) in the assay with HOP-92; greater than 100 µM in the assay with HCT-15; 69.5 µM (inactive) in the assay with NCI-H460; 61.7 µM (inactive) in the assay with MOLT-4; > 100 µM (inactive) with 786-0. For the same molecule, the GI50 in the assay with CCRF-CEM was 84.5 µM (inactive); in the assay with HL-60, > 100 µM (inactive); with SK-MEL-2, > 100 µM (inactive); in the assay with UACC-257 it was > 100 µM (inactive); in the assay with LOX IMVI, > 100 µM (inactive); in the assay on HOP-62, > 100 µM (inactive). Besides, the GI50 in the assay with UO-31 was > 100 µM (inactive).
On to `COc1cccc(C2=NC(C(C)C)CO2)c1` (stereo not given), for which the GI50 is > 100 µM (inactive) in the assay with EKVX; > 100 µM (inactive) in the assay on SK-MEL-28; > 100 µM (inactive) in the assay on K562; greater than 100 µM in the assay on HCT-15; > 100 µM (inactive) in the assay on NCI-H460; > 100 µM (inactive) in the assay with RXF 393. Further, the GI50 in the assay on MOLT-4, in the assay on 786-0, in the assay on CCRF-CEM, with HL-60, in the assay on SK-MEL-2 and with UACC-257 was > 100 µM (inactive) throughout. The GI50 in the assay on LOX IMVI was > 100 µM (inactive); in the assay on HOP-62 it was > 100 µM (inactive); in the assay on UO-31, 85.7 µM (inactive).
As to `Cc1cc(C)nc(Nc2nc3cc([N+](=O)[O-])ccc3[nH]2)n1`, the GI50 in the assay on U-251 was > 100 µM (inactive); in the assay with EKVX, > 100 µM (inactive); with SK-MEL-28, > 100 µM (inactive); in the assay on K562 it was > 100 µM (inactive); in the assay with HOP-92, 31.1 µM (inactive); with HCT-15 it was greater than 100 µM. Moreover, the GI50 in the assay on NCI-H460, with MOLT-4, with 786-0, with CCRF-CEM, in the assay on HL-60 and with SK-MEL-2 was > 100 µM (inactive) each time. For the same molecule, the GI50 in the assay on UACC-257, in the assay with LOX IMVI, in the assay with HOP-62 and in the assay with UO-31 was > 100 µM (inactive) each time.
Take `N#CCCN(c1ccc(/C=N/c2ccccc2)cc1)S(=O)(=O)c1ccccc1`: the GI50 in the assay with EKVX is 35.7 µM (inactive); in the assay with SK-MEL-28, > 100 µM (inactive); with K562, 2.97 µM (inactive); with HOP-92, > 100 µM (inactive); with MOLT-4, > 100 µM (inactive); with 786-0 it was > 100 µM (inactive). Besides, the GI50 with CCRF-CEM was > 100 µM (inactive); with HL-60, 31.1 µM (inactive); in the assay with SK-MEL-2, > 100 µM (inactive); in the assay with UACC-257, > 100 µM (inactive); with HOP-62 it was 23.7 µM (inactive); in the assay with UO-31, 17 µM (inactive).
Turning to `COc1ccc2c(c1OC)C(=O)C2`, the GI50 was > 100 µM (inactive) in the assay on U-251; > 100 µM (inactive) with EKVX; > 100 µM (inactive) with SK-MEL-28; > 10 µM (inactive) with K562; greater than 100 µM with HCT-15; > 100 µM (inactive) with NCI-H460. The GI50 with RXF 393, in the assay on MOLT-4, in the assay on 786-0, in the assay on CCRF-CEM, with HL-60 and with SK-MEL-2 was > 100 µM (inactive) throughout. The GI50 with UACC-257, with LOX IMVI, in the assay with HOP-62 and in the assay with UO-31 was > 100 µM (inactive) in each case.
Regarding `COc1ccc(/C=C2\CN(C)Cc3c2nc(N)nc3-c2ccc(OC)cc2)cc1`, the GI50 is 67.5 µM (inactive) in the assay on U-251; 33.6 µM (inactive) in the assay on EKVX; > 100 µM (inactive) in the assay on SK-MEL-28; 70.5 µM (inactive) with K562; > 100 µM (inactive) in the assay on NCI-H460; > 100 µM (inactive) in the assay with RXF 393. Further, the GI50 is 30.1 µM (inactive) in the assay with MOLT-4; > 100 µM (inactive) in the assay on 786-0; 41.5 µM (inactive) in the assay with CCRF-CEM; 28.7 µM (inactive) in the assay on HL-60; 83.4 µM (inactive) in the assay with SK-MEL-2; 79.4 µM (inactive) with LOX IMVI. The GI50 is 64.1 µM (inactive) with HOP-62 and > 100 µM (inactive) in the assay on UO-31.
Take `COC1OC(C)C(OC(=O)C(C)(C)C)C(OS(=O)(=O)c2ccc(C)cc2)C1OS(=O)(=O)c1ccc(C)cc1` (stereo not given): the GI50 in the assay on U-251 is > 100 µM (inactive); in the assay on SK-MEL-28, > 100 µM (inactive); in the assay with K562, > 100 µM (inactive); with HCT-15, greater than 100 µM; in the assay on NCI-H460, > 100 µM (inactive); with RXF 393 it was > 100 µM (inactive). Further, the GI50 in the assay with MOLT-4, with 786-0, with CCRF-CEM, in the assay with HL-60, in the assay on SK-MEL-2 and in the assay on UACC-257 was > 100 µM (inactive) each time. Also, the GI50 in the assay with HOP-62 and in the assay with UO-31 was > 100 µM (inactive) in each case.
Turning to `O=[N+]([O-])c1ccc(C2CC(c3ccc(NCc4nc5ccccc5[nH]4)cc3)=NO2)cc1` (stereo not given), the GI50 in the assay with U-251 was 36.4 µM (inactive); with SK-MEL-28 it was > 100 µM (inactive); in the assay on K562, 21.1 µM (inactive); with HOP-92 it was > 100 µM (inactive); in the assay with HCT-15, 30.7 µM; in the assay with NCI-H460 it was 15.6 µM (inactive). Further, the GI50 in the assay with RXF 393 is > 100 µM (inactive); with MOLT-4, 6.92 µM (inactive); in the assay on 786-0, 39.6 µM (inactive); in the assay with CCRF-CEM it was 15.6 µM (inactive); in the assay with HL-60 it was 20.4 µM (inactive); in the assay with SK-MEL-2, > 100 µM (inactive). The GI50 in the assay with LOX IMVI was 35.5 µM (inactive); in the assay with HOP-62, > 100 µM (inactive); in the assay with UO-31, > 100 µM (inactive).
For `O=C(/C=N/c1ccccc1[S-])c1ccco1.O=C(/C=N/c1ccccc1[S-])c1ccco1.[Zn+2]`, the GI50 was 4.23 µM (inactive) in the assay on U-251; 10.7 µM (inactive) with SK-MEL-28; 18.9 µM (inactive) in the assay on K562; 11.5 µM (inactive) with HOP-92; 8.59 µM in the assay on HCT-15; 3.87 µM (inactive) in the assay on NCI-H460. In addition, the GI50 in the assay on MOLT-4 is 5.2 µM (inactive); in the assay with 786-0 it was 8.3 µM (inactive); in the assay on CCRF-CEM it was 2.95 µM (inactive); with HL-60, 3.56 µM (inactive); with SK-MEL-2, 15.8 µM (inactive); in the assay on UACC-257, 12.5 µM (inactive). The GI50 in the assay with LOX IMVI was 7.46 µM (inactive); with HOP-62, 6 µM (inactive); in the assay with UO-31, 2.99 µM (inactive).
Turning to `COc1ccc(/C=C/c2cc(OC)c(O[Si](C)(C)C(C)(C)C)c(OC)c2)cc1`, the GI50 in the assay with U-251 is 98.6 µM (inactive); in the assay with EKVX, > 100 µM (inactive); with SK-MEL-28, 6.24 µM (inactive); in the assay with K562, 41.9 µM (inactive); in the assay on HOP-92, 29.9 µM (inactive); with HCT-15 it was greater than 100 µM. Further, the GI50 was 42.2 µM (inactive) in the assay on NCI-H460; 63.4 µM (inactive) in the assay on MOLT-4; > 100 µM (inactive) in the assay on 786-0; 58.7 µM (inactive) with CCRF-CEM; > 100 µM (inactive) in the assay on SK-MEL-2; 28.4 µM (inactive) in the assay with UACC-257. The GI50 in the assay with HOP-62 and with UO-31 was > 100 µM (inactive) each time.

The values above are taken from ChEMBL document CHEMBL1201862, “PubChem BioAssay data set” (2004).
